Values after ≈ are worked out from the molar mass of the structure shown. Peptide text beside a SMILES is read from it.
Columns and labels:
[1] = system: B. subtilis 168/DSM 402; test: Cytosolic proteome response profile (radioactive pulse-labelling, 2D-PAGE); type: cell-based, Bacillus subtilis; conditions: 8 μM cWFW, BMM
Procedure: To identify which cellular processes are disturbed by cWFW, we performed proteomic profiling of the Gram-positive model organism B. subtilis (Fig. 1). This technique combines radioactive pulse-labeling of newly synthesised proteins with two-dimensional SDS PAGE, thus providing insight into the acute antibiotic stress response.
(§1) B. subtilis 168/DSM402 was grown in chemically defined Belitzky minimal medium (BMM)[61]. Cultures were incubated at 37 °C under steady agitation. Minimal inhibitory concentrations (MIC) were determined as described previously. In growth experiments, exponentially growing cultures were exposed to a concentration range of peptide (Supplementary Figure 1)[62]. For physiological stress experiments, concentrations were chosen that led to 50% reduction of the growth rate. For proteomic profiling, as well as for all follow up experiments performed under the same growth conditions, 8 μM cWFW were used.
Radioactive labelling of newly synthesised proteins and subsequent separation of the cytosolic proteome by two-dimensional polyacrylamide gel electrophoresis (2D-PAGE) was performed as previously described. Analytical gel images were analysed as described by Raatschen & Bandow[63] using Decodon Delta 2D 4.1 image analysis software. […] Protein spots were identified by MALDI-ToF/ToF or nanoUPLC-ESI-MS/MS using a Synapt G2-S HDMS mass spectrometer equipped with a lock spray source for electrospray ionisation and a ToF detector (Waters) as previously reported (Supplementary Tables 2 and 3)[62].

[2] = system: B. subtilis 168; test: ATP measurement (luciferase-based luminescence); type: cell-based, Bacillus subtilis; conditions: 20 min incubation with 4, 8, and 12 μM; p ≥ 0.05; three independent replicates
Procedure: For the determination of cellular ATP levels samples were incubated with increasing concentration of cWFW for 20 min, followed by flash-freeze in liquid N2 in order to stop metabolism. Cell lysis and measurement of cell ATP levels were carried out using ATP bioluminescence Assay Kit HSII (Roche Applied Science) following manufacturer’s instructions using a BMG Fluostar Optima luminometer. The measured luminescence was calibrated with a serial dilution of ATP and triplicate samples were equalised against the optical density of the corresponding cell suspensions.

[3] = system: B. subtilis KS19 (ΔlytABCDEF); test: Cell lysis (optical density) in autolysin-deficient strain; type: cell-based, Bacillus subtilis; conditions: different concentrations, three replicate cultures
[4] = system: B. subtilis 168/DSM402; type: cell-based, Bacillus subtilis
Procedure: as §1

[5] = system: B. subtilis 168/DSM 402; test: Ion analysis (ICP-OES); type: cell-based, Bacillus subtilis; conditions: 15 min incubation with 8 μM, BMM, three independent measurements
Procedure: Only metal-free plastic ware and ultrapure water (Bernd Kraft) were used. All centrifugation steps were reduced to 2 min to reduce sample handling time. Cultures were adjusted to OD500 = 0.4 prior to antibiotic exposure to ensure equal cell count in each sample. Samples were prepared as described by Wenzel et al.[13]. Briefly, B. subtilis 168/DSM402 was grown in BMM until early exponential growth phase. For determination of ion concentrations, subcultures were incubated with 8 μM cWFW for 15 min, followed by cell harvest by centrifugation, washed twice in TE buffer (100 mM Tris-HCl, 1 mM EDTA, pH 7.5) and once in the same buffer without EDTA. The obtained cell pellets were digested in 65% nitric acid (Bernd Kraft) at 80 °C for 16 h. Prior to element analysis, samples were diluted with ultrapure water to a final nitric acid concentration of 10%. Element concentrations were determined by inductively-coupled plasma atomic emission spectroscopy using an iCAP* 6300 Duo View ICP Spectrometer (Thermo Fisher Scientific) as described before. […] Element concentrations were converted into intracellular ion concentrations based on the B. subtilis cellular volume, which was taken as 3 × 10^–9 μl based on average rod size determined by cryo-electron microscopy images by Matias and Beveridge[64][65].

[6] = system: B. subtilis 168; type: cell-based, Bacillus subtilis; conditions: 168, 18 h
Procedure: (§2) Cells were inoculated from an overnight culture 1:100 and grown to mid-log phase (OD600 = 0.2–0.4). Unless stated otherwise, all experiments were carried out in LB medium at 37 °C. Cell numbers were determined using a Petroff-Hausser counting chamber: OD600 = 1 corresponds to 8.8 × 10^7 CFU/ml B. subtilis. Further information on strains, conditions of gene induction, and minimal inhibitory concentration are listed in Supplementary Table 4.
(§3) The minimal inhibitory concentration (MIC), which is defined as the lowest concentration able to inhibit growth of a microorganism in vitro[59], was analysed as described before. Briefly, bacteria were grown to mid-log phase and diluted in growth medium to give a final cell number of 5 × 10^5 cells/well in 96 well microtiter plates. A microdilution technique was applied where small volumes of peptide solutions were added in a serial dilution ranging from 100 to 0.05 μM. Cells were cultivated for 18 hours, 37 °C, 180 rpm, followed by photometrical detection of the optical density using a microplate reader (Tecan). Peptide concentrations were tested in triplicates in three independent experiments.

[7] = system: B. subtilis SDB206; type: cell-based, Bacillus subtilis; conditions: ywiE::neo clsB::spc clsA::ery (CL-deficient), determined in LB
Procedure: as §2, §3

[8] = system: B. subtilis HB5343; type: cell-based, Bacillus subtilis; conditions: psd::ery (PE-deficient), determined in LB
Procedure: as §2, §3

[9] = system: B. subtilis 168; test: Membrane fluidity in cells (laurdan GP); type: cell-based, Bacillus subtilis
From the text: Membrane fluidity was investigated with the small hydrophobic fluorescent dye laurdan, which integrates into cellular membranes and detects changes related to the lipid packing of the surrounding bilayer. The resulting changes in the fluorescence emission spectrum can be detected either spectroscopically or with fluorescence microscopy. A mathematical quantification of the emission shift is achieved by calculation of the laurdan GP (generalised polarisation) with GP = (I435 − I490)⁄(I435 + I490).
B. subtilis 168 cells were grown to OD600 ~ 0.5 in LB/0.1% glucose and incubated with 10 μM laurdan for 5 min, shaking in the dark. […] The supernatant removed from the cells after the last washing step served as background for laurdan fluorescence not associated with cells. […] All samples were shaken briefly before fluorescence detection at 435 ± 5 nm and 490 ± 5 nm (upon excitation at 350 ± 10 nm) on a plate reader (Fluostar Optima, BMG Labtech). Laurdan fluorescence was monitored for at least 20 min. […] Laurdan fluorescence in liposomes was recorded using an LS 50B spectrofluorometer (Perkin-Elmer Corp., Germany). […] Laurdan fluorescence was detected separately at 435 and 500 nm, respectively. The average of three measurements for each preparation was calculated to determine corresponding laurdan GP values. […]

[10] = system: B. subtilis 168; test: Membrane potential measurement with DiSC3(5); type: cell-based, Bacillus subtilis
Procedure: Peptide-induced changes in membrane potential were measured using the voltage-sensitive fluorescent dye DiSC3(5). In aqueous solution DiSC3(5) emits strong fluorescence which is quenched upon accumulation in polarised cells. Upon depolarisation, DiSC3(5) is released from the cell resulting in an increased fluorescence due to de-quenching. B. subtilis 168 was grown at 37 °C to mid-log phase and diluted in LB medium to OD600 0.2. After centrifugation for 1 min at 16,500 rpm, the supernatant was removed and cells carefully resuspended in 1 ml fresh pre-warmed LB containing 0.1 mg/ml BSA. Subsequently, 140 μl aliquots of the cell suspension were transferred into a 96 well microtiter plate and allowed to settle. 10 μl of 15 μM DiSC3(5) in LB/15% DMSO were added to the wells to give a final DiSC3(5) concentration of 1 μM. Cellular accumulation (quenching) of DiSC3(5) was monitored until the signal had reached stable fluorescence levels. The peptides were added at desired concentrations at 5 μl/well, and the resulting changes in DiSC3(5) fluorescence were analysed for at least 20 min using a Fluostar Optima, BMG Labtech. Solutions, plates and instruments were warmed to 37 °C prior to use.

[11] = system: human cells; conditions: cited from earlier work
From the text: Antimicrobial peptides (AMPs) have been in the focus of research attention as a promising alternative for conventional antibiotics. The subclass of arginine- and tryptophan-rich peptides, with cationic charge and hydrophobic residues, provides the ideal structural prerequisite for interaction with the negatively charged bacterial membranes. To elucidate optimal structure-activity properties we screened a library of small synthetic peptides derived from the active motif of human antimicrobial peptide lactoferricin[3]. This analysis identified the cyclic hexapeptide cWFW (cyclo-RRRWFW) as ...

Structure (SMILES): N=C(N)NCCC[C@@H]1NC(=O)[C@H](CCCNC(=N)N)NC(=O)[C@H](Cc2c[nH]c3ccccc23)NC(=O)[C@H](Cc2ccccc2)NC(=O)[C@H](Cc2c[nH]c3ccccc23)NC(=O)[C@H](CCCNC(=N)N)NC1=O [cWFW, cyclo(RRRWFW)] (cyclo(FWRRRW))
- induction factor of protein AcsA [1]: 3.7
- induction factor of protein CitZ [1]: 3.5
- induction factor of protein ClpC [1]: 5.4
- induction factor of protein ClpP [1]: 4.8
- induction factor of protein DltA [1]: 4.2
- induction factor of protein Dps [1]: 5.2
- induction factor of protein FbaA [1]: 2.9
- induction factor of protein FosB [1]: 8.3
- induction factor of protein GroEL [1]: 3.9
- induction factor of protein GsiB [1]: 8.4
- induction factor of protein GtaB [1]: 3.2
- induction factor of protein IspH [1]: 19.0
- induction factor of protein LiaH [1]: 16.6
- induction factor of protein LuxS [1]: 3.4
- induction factor of protein MinD [1]: 3.1
- induction factor of protein NadE [1]: 11.0
- induction factor of protein NfrA [1]: 5.7
- induction factor of protein OhrB [1]: 4.4
- induction factor of protein PepF [1]: 3.6
- induction factor of protein PspA [1]: 9.5
- induction factor of protein PurH [1]: 3.4
- induction factor of protein RacX [1]: 12.0
- induction factor of protein SalA [1]: 3.5
- induction factor of protein SodA [1]: 3.0
- induction factor of protein SpoVG [1]: 2.4
- induction factor of protein TpiA [1]: 5.8
- induction factor of protein Tpx [1]: 4.1
- induction factor of protein YceC [1]: 9.9
- induction factor of protein YdaG [1]: 5.6
- induction factor of protein YdbD [1]: 19.4
- induction factor of protein YfhM [1]: 5.8
- induction factor of protein YjdA [1]: 3.4
- induction factor of protein YkaA [1]: 4.6
- induction factor of protein YoxD [1]: 7.1
- induction factor of protein YpuA [1]: 4.0
- induction factor of protein YqiW [1]: 2.4
- induction factor of protein YqkF [1]: 7.7
- induction factor of protein YthP [1]: 5.9
- induction factor of protein YvlB [1]: 9.0
- induction factor of protein YvyD [1]: 6.2
- induction factor of protein YwjI [1]: 6.4
- induction factor of protein YwrO [1]: 4.3
- change of ATP levels [2]: No significant changes
- lysis triggered by cWFW in the absence of major autolysins LytCDEF [3]: fully abolished
- MIC [4]: 8 µM (≈ 7.91 µg/mL)
- change in cellular K+ content [5]: accumulation of K^+
- leakage of cellular ions [5]: no leakage of cellular ions was observed
- MIC [6]: 6 µM (≈ 5.93 µg/mL)
- MIC [7]: 6 µM (≈ 5.93 µg/mL)
- MIC [8]: 6 µM (≈ 5.93 µg/mL)
- time until reduction of membrane fluidity reaches a steady state ([9]; 6 μM, time-resolved laurdan GP): ≤ 2 min
- change of laurdan generalised polarisation (GP) in cells ([9]; 10 min incubation with increasing concentrations, high GP = low membrane fluidity, three replicates): clear concentration-dependent increase in laurdan generalised polarisation (GP)
- membrane depolarisation (DiSC3(5) fluorescence) ([10]; growth-inhibitory concentrations (8 μM) and above, LB, 37 °C, three independent replicates): very low compared to that of the positive control KLA-1
- time until membrane potential was restored almost to control levels ([10]; growth-inhibitory concentrations (8–12 μM)): ≤ 10 min
- toxicity towards human cells [11]: not toxic towards human cells
